Values quoted from earlier work as cited in PubChem BioAssay AID1259409 (Chemical Carcinogenesis Research Information System (CCRIS), 2018).

Tested on: rodent chemically induced tumor inhibition, incidence and multiplicity
Test: CCRIS tumor inhibitor studies
Conditions: Route [Inhibitor]: ORAL, Species: RAT, Promoter: NONE USED

O=P(O)(O)OC1C(OP(=O)(O)O)C(OP(=O)(O)O)C(OP(=O)(O)O)C(OP(=O)(O)O)C1OP(=O)(O)O (stereo unspecified)
tumour outcome (control, treated, inhibition, significance) (Carcinogen: 7,12-DIMETHYLBENZ[A]ANTHRACENE, 57-97-6, Dose [Inhibitor]: 0, 2% IN DIET FOR 35 WK BEGINNING POST CARCINOGEN DOSE (STUDY DURATION: 36 WK), Strain/Sex: SPRAGUE-DAWLEY/FEMALE, Target Tissue: Type of Lesion: EAR DUCT: TUMOR, Dose [Carcinogen]: 50 MG/KG BW IN CORN OIL ONCE): 5/15 (33%), 2/15 (13%), 61%, not significant | tumour outcome (control, treated, inhibition, significance) (Carcinogen: 7,12-DIMETHYLBENZ[A]ANTHRACENE, 57-97-6, Dose [Inhibitor]: 0, 2% IN DIET FOR 35 WK BEGINNING POST CARCINOGEN DOSE (STUDY DURATION: 36 WK), Strain/Sex: SPRAGUE-DAWLEY/FEMALE, Target Tissue: Type of Lesion: MAMMARY GLAND: ADENOCARCINOMA OR FIBROADENOMA, Dose [Carcinogen]: 50 MG/KG BW IN CORN OIL ONCE): 14/15 (93%), 15/15 (100%), -8%, not significant | tumour outcome (control, treated, inhibition, significance) (Carcinogen: 7,12-DIMETHYLBENZ[A]ANTHRACENE, 57-97-6, Dose [Inhibitor]: 0, 15 MILLIMOLAR IN DRINKING WATER BEGINNING 1 WK PRIOR TO CARCINOGEN DOSE AND CONTINUING FOR 16 WK (STUDY DURATION: 16, Strain/Sex: SPRAGUE-DAWLEY/FEMALE, Target Tissue: Type of Lesion: MAMMARY GLAND: CARCINOMA, Dose [Carcinogen]: 20 MG IN 1 ML SESAME OIL ONCE): 7/10 (70%), 17/21 (81%), -16%, not calculated | tumour outcome (control, treated, inhibition, significance) (Carcinogen: 7,12-DIMETHYLBENZ[A]ANTHRACENE, 57-97-6, Dose [Inhibitor]: 0, 15 MILLIMOLAR IN DRINKING WATER FOR 47 WK BEGINNING 2 WK PRIOR TO CARCINOGEN DOSE (STUDY DURATION: 47 WK), Strain/Sex: SPRAGUE-DAWLEY/FEMALE, Target Tissue: Type of Lesion: MAMMARY GLAND: TUMOR, Dose [Carcinogen]: 5 MG IN 1 ML CORN OIL ONCE): 37/40 (93%), 27/38 (71%), 24%, p<0.05 | tumour outcome (control, treated, inhibition, significance) (Carcinogen: AZOXYMETHANE, 25843-45-2, Dose [Inhibitor]: 0, 2% IN A HIGH FAT LOW FIBER DIET FOR DURATION OF STUDY BEGINNING 3 WK PRIOR TO CARCINOGEN TREATMENT (STUDY DURATION: 3, Strain/Sex: SPRAGUE-DAWLEY/FEMALE, Target Tissue: Type of Lesion: COLON: TUMOR, Dose [Carcinogen]: 15 MG/KG BW 1/WK FOR 2 WK): 65%, 30%, 54%, p<0.05 | tumour outcome (control, treated, inhibition, significance) (Carcinogen: AZOXYMETHANE, 25843-45-2, Dose [Inhibitor]: 0, 2% IN DRINKING WATER BEGINNING 1 WK POST CARCINOGEN DOSE AND CONTINUING FOR DURATION OF STUDY (STUDY DURATION: 36 WK), Strain/Sex: F344/MALE, Target Tissue: Type of Lesion: COLON: CARCINOMA, Dose [Carcinogen]: 30 MG/KG ONCE AT 6 WK OF AGE): 10/12 (83%), 3/12 (25%), 70%, p=0.0045 | tumour outcome (control, treated, inhibition, significance) (Carcinogen: AZOXYMETHANE, 25843-45-2, Dose [Inhibitor]: 1% IN DRINKING WATER BEGINNING 1 WK PRIOR TO FIRST CARCINOGEN DOSE (STUDY DURATION: 9 MO), Strain/Sex: F344/MALE, Target Tissue: Type of Lesion: LARGE INTESTINE: CARCINOMA, Dose [Carcinogen]: 8 MG/KG BW INJECTED IN HIND LEG 1/WK FOR 12 WK): 100%, 100%, 0%, not significant | tumour outcome (control, treated, inhibition, significance) (Carcinogen: AZOXYMETHANE, 25843-45-2, Dose [Inhibitor]: 2% IN DRINKING WATER BEGINNING 2 WK POST LAST CARCINOGEN DOSE (STUDY DURATION: 10 MO), Strain/Sex: F344/MALE, Target Tissue: Type of Lesion: COLON: TUMOR, Dose [Carcinogen]: 8 MG/KG BW INJECTED IN HIND LEG 1/WK FOR 4 WK): 43%, 10%, 77%, not calculated | tumour outcome (control, treated, inhibition, significance) (Carcinogen: N-METHYL-N-NITROSOUREA, 684-93-5, AZOXYMETHANE, 25843-45-2, Carcinogen: N-METHYL-N-NITROSOUREA, 684-93-5, AZOXYMETHANE, 25843-45-2, Dose [Inhibitor]: 0, 2% IN A HIGH FAT LOW FIBER DIET FOR DURATION OF STUDY BEGINNING 2 WK PRIOR TO CARCINOGEN TREATMENT (STUDY DURATION: 3, Strain/Sex: SPRAGUE-DAWLEY/FEMALE, Target Tissue: Type of Lesion: COLON: TUMOR, Dose [Carcinogen]: 50 MG/KG BW MNU ONCE FOLLOWED BY 15 MG/KG BW AOM 1/WK FOR 2 WK): 70%, 30%, 57%, p<0.05 | tumour outcome (control, treated, inhibition, significance) (Carcinogen: N-METHYL-N-NITROSOUREA, 684-93-5, AZOXYMETHANE, 25843-45-2, Carcinogen: N-METHYL-N-NITROSOUREA, 684-93-5, AZOXYMETHANE, 25843-45-2, Dose [Inhibitor]: 0, 2% IN A HIGH FAT LOW FIBER DIET FOR DURATION OF STUDY BEGINNING 2 WK PRIOR TO CARCINOGEN TREATMENT (STUDY DURATION: 3, Strain/Sex: SPRAGUE-DAWLEY/FEMALE, Target Tissue: Type of Lesion: MAMMARY GLAND: CARCINOMA, Dose [Carcinogen]: 50 MG/KG BW MNU ONCE FOLLOWED BY 15 MG/KG BW AOM 1/WK FOR 2 WK): 100%, 50%, 50%, p<0.05 | tumour outcome (control, treated, inhibition, significance) (Carcinogen: N-METHYL-N-NITROSOUREA, 684-93-5, Dose [Inhibitor]: 0, 2% IN HIGH FAT LOW FIBER DIET FOR DURATION OF STUDY BEGINNING 2 WK PRIOR TO CARCINOGEN TREATMENT (STUDY DURATION: 32, Strain/Sex: SPRAGUE-DAWLEY/FEMALE, Target Tissue: Type of Lesion: MAMMARY GLAND: CARCINOMA, Dose [Carcinogen]: 50 MG/KG BW ONCE): 95%, 40%, 58%, p<0.05
